Data set [1] deals with ADP-induced platelet aggregation. Nature of the data set: ADP-induced platelet aggregation (antiplatelet aggregation activity). The class given is cell-based. The note with it: platelet aggregation induced by ADP (10 μM); mean ± SD, n = 5. The protocol:
(§1) The antiplatelet aggregation activity of the target compounds was evaluated against ADP- and AA-induced platelet aggregation. In other words, different concentrations of the target compound solution and POC ([Zhang J. et al., 2021]) (10 μL) were added to the plasma at 37°C for 5 min. Then, platelets were stimulated with ADP (10 μM, 30 μL) or AA (1 mM, 30 μL). Variations in absorbance were monitored for 5 min in order to measure platelet aggregation ([Daron et al., 2022]). The platelet aggregation inhibition rate (AIR) was calculated according to the following formula: AIR = (rate of aggregation (control)−rate of aggregation (compounds))/rate of aggregation (control) × 100%

The test system of data set [2] is AA-induced platelet aggregation. Nature of the data set: AA-induced platelet aggregation (antiplatelet aggregation activity). Type of data set: cell-based. To be noted: platelet aggregation induced by AA (1 μM); mean ± SD, n = 5. As to the method:
as §1, with “Then, platelets were stimulated with ADP (10 μM, 30 μL) or AA (1 mM, 30 μL).” left out

On the set-up of data set [3]: method as in Zhang J. et al., 2021. To be noted: found in the authors' previous study; ref Zhang J. et al., 2021; cited from earlier work.
For a further data set, the system named is OGD/R PC12 cells. Nature of the data set: Protective effect on OGD/R PC12 cells (oxygen-glucose deprivation), CCK-8. The class given is cell-based. The note with it: Rattus norvegicus, mean ± SD, n = 5, read-out: Cell viability (%). The protocol: (§2) For the cell culture conditions, rat pheochromocytoma PC12 cells (ATCC, Manassas, VA, United States) were cultured in RPMI 1640 culture medium with 1% penicillin and streptomycin and 10% fetal bovine serum (FBS) (Gibco, Waltham, MA, United States) at 37°C with 5% CO2.
For oxygen-glucose deprivation of PC12 cell activity, the procedure was conducted as follows ([Wei et al., 2022]): the cells were cultured in a 96-well plate for 24 h. Then, the culture medium was replaced with oxygen–glucose-free RPMI 1640 and placed in an incubator with 5% CO2 and 95% N2 for 2 h. Once the oxygen-free process was completed, the culture medium was changed back to RPMI 1640 and maintained at 37°C with 5% CO2 for an additional 24 h. Cell viability was then assessed using the CCK-8 assay.

The next data set concerns PC12 cells. Kind of data set: Viability of PC12 cells, CCK-8 assay. To be noted: 24 h. Type of data set: cell-based, rat. As to the method:
as §2
Cell viability was assessed using a CCK-8 assay. The PC12 cells were seeded in a 96-well plate at a density of 1 × 10^5 cells per well. After incubation for 24 h, the cells were treated with various concentrations of the compound. After 24 h of re-incubation, the cell viability was evaluated using a 10% CCK-8 solution. The absorbance value was determined at 450 nm.

The nature of data set [4]: Pharmacokinetic study after single i.g. or i.v. administration to rats. The class given is in vivo. The note with it: for AUC(0-t) / AUC(0-∞) / half-life / MRT last: single 6.4 mg/kg, mean ± SD; for AUC(0-t) / AUC(0-∞) / half-life: n = 6; for MRT last: n = 6, read-out: MRT (0-t) (converted). The protocol: Six rats were given compound 8b (6.4 mg/kg) ([Zhang J. et al., 2021]) by intravenous injection (i.v.) and intragastric administration (i.g.), respectively. The animal experiment protocol was performed according to the guidelines for animal experiments and supervised by the Experimental Animal Ethics Committee of Anhui University of Chinese Medicine (AHUCM-rats-2019001). Then, approximately 1.0 mL of blood was taken from the orbital venous plexus of the rats and placed into an EP-containing heparin at predetermined time points of 3, 5, 10, 20, 30, 45, 60, 120, and 240 min after dosing. The blood sample was centrifuged for 15 min at 3,500 rpm to obtain plasma. For plasma preparation, 180 μL of plasma was mixed with 20 μL of glibenclamide as an internal standard and 900 μL of acetonitrile. The mixture was then centrifuged at 12,000 rpm for 10 min. After centrifugation, 800 μL of the supernatant was dried using a vacuum freeze dryer. The dried sample was then reconstituted with 200 μL of acetonitrile for LC/MS analysis. The analytical conditions for the plasma samples are as follows: a Hypersil GOLD C8 HPLC Column (2.1 mm × 100 mm, 1.9μm; Thermo Fisher Scientific, United States) was used for chromatographic separation. The column temperature was maintained at 30°C, and the sample chamber temperature was maintained at 4°C. A gradient elution with a flow rate of 0.2 mL/min (phase A: 0.1% formic acid, phase B: methanol) was carried out from 45% B to 80% within 2.5 min, then from […] to 90% within 1 min, and maintained at 90% for 1 min; subsequently, it was decreased from 90% to 45% in 30 s and maintained for 1 min. Multiple-reaction monitoring (MRM) was quoted as the acquisition mode of mass spectrometry in a positive ionization mode. The mass spectrometry detector was equipped with an electrospray ionization (ESI) source. The optimal MS parameters were as follows: the ion source temperature was set at 400°C, the vaporization temperature was set at 500°C, the electrospray voltage was set to 5500 V, and the capillary voltage was set to 3600 V. The ion pair of 8b is m/z 517.0 and 281.4, and the declustering voltage is 120 eV; the collision energy is 40 eV. Similarly, the ion pair of glibenclamide is m/z 494.1 and 169.0, the declustering voltage is 65 eV, and the collision energy is 50 eV.

Values joined by “and” are separate entries in the source; they are usually repeats but may differ in a detail not shown here. Identical values can stand only once. Like-named read-outs stand apart in the source and are kept apart here.

Take `COc1ccc(C(C)=O)c(OCCCNC(=O)C=Cc2ccc(Cn3ccnc3)cc2)c1` [PNC5, 3-(4-((1H-imidazol-1-yl)methyl)phenyl)-N-(3-(2-acetyl-5-metho-xyphenoxy)propyl)acrylamide]: the IC50 is above 1000 µM in data set [1] and 234 ± 16.6 µM in data set [2].

`COc1ccc(C(C)=O)c(OC(=O)C=Cc2ccc(Cn3ccnc3)cc2)c1` [POC, reference compound]: the IC50 in data set [1] was 842 ± 53.3 µM; in data set [2], 349 ± 16 µM. Besides, in data set [3], the stability result is given as “unstable”.

Take `COc1ccc(C(C)=O)c(OCCCN2CCN(C(=O)C=Cc3ccc(Cn4ccnc4)cc3)CC2)c1` [PNC2]: the figures for the IC50 in data set [1] and in data set [2] were above 1000 µM and 462 ± 28.7 µM, respectively.

As for `O=C(O)/C=C/c1ccc(Cn2ccnc2)cc1` [Ozagrel, (E)-sodium 4-(1-imidazolomethyl) cinnamate], the IC50 was above 1000 µM in data set [1] and 52.5 ± 3.29 µM in data set [2].

On to `COc1ccc(C(C)=O)c(OCCCCCN2CCN(C(=O)C=Cc3ccc(Cn4ccnc4)cc3)CC2)c1` [PNC4], for which the IC50 in data set [1] is above 1000 µM; in data set [2], 692 ± 45.7 µM.

As to `COc1ccc(C(C)=O)c(OCCCCN2CCN(C(=O)C=Cc3ccc(Cn4ccnc4)cc3)CC2)c1` [PNC3], in the data set with OGD/R PC12 cells (PC-12, 0.02 μM), the viability at 0.02 µM is 50.5 ± 2.95%. Further, the viability at 0.04 µM in the data set on OGD/R PC12 cells (PC-12, 0.04 μM) was 54.2 ± 2.68%. Besides, in the data set with OGD/R PC12 cells (PC-12, 0.08 μM), the viability at 0.08 µM was determined as 62.3 ± 3.14%. Besides, in data set [1], half-maximal inhibition (IC50) required 485 ± 31.1 µM. Further, in the data set on PC12 cells (0–0.16 μM), the “impact on cell viability” value is on record as “no impact on cell viability”. In the data set with PC12 cells (0.08 μM), the cell survival rate worked out at 97.52%. The cell survival rate in the data set on PC12 cells (concentration exceeded 0.16 μM) is 94.03%. In data set [2], this compound came in with an IC50 of 74.7 ± 4.86 µM. Besides, in data set [4] (i.g.), the “time remained detectable in the blood” value was “up to 8 h”, the “AUC(0-t)” value was 6148.338 ± 2222.737 µg·min/L and the “AUC(0-∞)” value is given as 8346.219 ± 3,719.156 μg/L*min. Further, in data set [4] (i.g. longer than i.v.), the “MRT i.g. relative to i.v.” value worked out at 2.11 times and the “t1/2 i.g. relative to i.v.” value is given as 2.33 times. Moreover, in data set [4] (i.v.), the “time within which peak concentration was visible” value is at most 6 h, the “AUC(0-t)” value is recorded as 18,552.773 ± 7438.264 μg/L*min and the “AUC(0-∞)” value is listed as 19,250.669 ± 7673.11 μg/L*min. Besides, in data set [4] (rat, plasma, iv), the half-life was found to be 125 ± 17.7 min and the MRT last is 2.5 h. Also, in data set [4] (rat, plasma, po, 6.4 mg/kg, i.g., read-out: time of peak concentration in the blood), the Tmax was 1 h. In addition, in data set [4] (rat, plasma, po, i.g.), the half-life is 291 ± 105 min and the MRT last is 5.28 h. Moreover, the “AUC by i.g. relative to i.v.” value in data set [4] (ratio of AUC(0-t) i.g. vs i.v., 6.4 mg/kg) was 33.3% and 33.1%.

For orientation: IC50 means the concentration at which inhibition is half-maximal. Usually viability stands for a per cent measure of how many cells are alive, often set against a control. Usually AUC(0-t) stands for exposure summed from dosing to a finite time, without extrapolation to infinity. In general, half-life refers to how long it takes for the measured level to halve. Lower therefore signals rapid decline.

Source of the values: paper PMC10985144, “Design, synthesis, and evaluation of the novel ozagrel–paeonol codrug with antiplatelet aggregation activities as a potent anti-stroke therapeutic agent” (Frontiers in Pharmacology, 2024).
